# Data as given in patent US11986471B2, “Compounds and methods of use” (Tango Therapeutics, Inc., priority 2018, dated 2024).
# Legend:
# Assay type in all cases: biochemical
# [1] = biological target: T1, PRMT5 (Homo sapiens, UniProt O14744); test: PRMT5 IC50 assay in the presence of SAM as cofactor
# T1 construct: purchased Viva (custom protein)
# Text: (§1) Table 1a indicates IC50 values (μM) against PRMT5 for exemplary compounds in the presence of SAM as cofactor, with no cofactor and with MTA as cofactor, respectively (columns 3-5). […] The Ki values can be calculated from the IC50 values as described in the Examples section. As detailed in the Examples section, for the assay performed in the presence of SAM, IC50=Ki×1.5 (Ki=IC50/1.5). For the assay performed in the presence of MTA, IC50=Ki×13.5 (Ki=IC50/13.5). Column 6 indicates the ratio between the Ki of compounds in the presence of SAM and the Ki of compounds in the presence of MTA
# [2] = biological target: T1, PRMT5; test: PRMT5 IC50 assay in the presence of MTA as cofactor; conditions: for IC50: PRMT5, MTA as cofactor; for SAM/MTA Ratio: ratio between the Ki in the presence of SAM and the Ki in the presence of MTA
# Text: as §1
# [3] = biological target: T1, PRMT5; test: PRMT5 IC50 assay with no cofactor
# Text: as §1
# T1 sequence (O14744 whole entry): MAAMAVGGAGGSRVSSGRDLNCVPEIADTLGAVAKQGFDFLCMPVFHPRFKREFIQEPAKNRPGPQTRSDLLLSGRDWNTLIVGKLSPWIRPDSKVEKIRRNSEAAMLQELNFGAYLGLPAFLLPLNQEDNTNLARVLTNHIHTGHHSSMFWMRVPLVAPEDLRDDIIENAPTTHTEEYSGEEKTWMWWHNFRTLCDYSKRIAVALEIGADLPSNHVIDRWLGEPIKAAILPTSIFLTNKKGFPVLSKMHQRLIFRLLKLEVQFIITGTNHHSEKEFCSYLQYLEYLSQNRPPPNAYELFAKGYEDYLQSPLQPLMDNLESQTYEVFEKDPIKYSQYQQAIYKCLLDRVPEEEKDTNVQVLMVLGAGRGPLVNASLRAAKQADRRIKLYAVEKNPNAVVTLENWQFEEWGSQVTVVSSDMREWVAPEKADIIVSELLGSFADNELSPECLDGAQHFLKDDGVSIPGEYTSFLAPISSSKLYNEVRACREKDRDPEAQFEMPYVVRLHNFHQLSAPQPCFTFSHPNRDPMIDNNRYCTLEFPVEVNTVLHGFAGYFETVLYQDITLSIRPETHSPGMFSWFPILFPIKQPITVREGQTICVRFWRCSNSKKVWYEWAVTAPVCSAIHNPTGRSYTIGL
# T1 sequence (Q9BQA1 whole entry partner): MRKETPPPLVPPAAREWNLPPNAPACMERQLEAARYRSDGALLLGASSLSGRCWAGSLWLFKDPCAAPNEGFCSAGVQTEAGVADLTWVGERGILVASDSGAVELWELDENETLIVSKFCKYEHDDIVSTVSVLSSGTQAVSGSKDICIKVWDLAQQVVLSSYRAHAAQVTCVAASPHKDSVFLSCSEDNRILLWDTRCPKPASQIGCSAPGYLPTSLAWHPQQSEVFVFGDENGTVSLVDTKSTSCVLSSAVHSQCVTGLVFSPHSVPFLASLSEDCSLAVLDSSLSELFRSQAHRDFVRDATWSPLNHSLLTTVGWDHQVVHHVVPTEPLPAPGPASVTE
structure (smiles),measurement,setting,value
"O=C(NC[C@H](O)CN1CCc2cc(OCc3cnco3)ccc2C1)c1cc(NC2CCOCC2)ccn1 [Compound 511, (S)—N-(2-hydroxy-3-(6-(oxazol-5-ylmethoxy)-3,4-dihydroisoquinolin-2(1H)-yl)propyl)-4-((tetrahydro-2H-pyran-4-yl)amino)picolinamide]",IC50,[1],0.5 to 5 µM
same,IC50,[2],0.5 to 5 µM
same,SAM/MTA Ratio,[2],A (a Ki ratio greater than or equal to 10 fold between the Ki in the presence of SAM and the Ki in the presence of MTA)
same,IC50,[3],≥ 5 µM
"Cc1c(OCc2cnco2)ccc2c1CCN(C[C@@H](O)CNC(=O)c1ccnc(NC34CC(C3)C4)c1)C2 [Compound 514, (S)-2-(bicyclo[1.1.1]pentan-1-ylamino)-N-(2-hydroxy-3-(5-methyl-6-(oxazol-5-ylmethoxy)-3N-dihydroisoquinolin-2(1H)-yl)propyl)isonicotinamide]",IC50,[1],0.5 to 5 µM
same,IC50,[2],0.5 to 5 µM
same,SAM/MTA Ratio,[2],A (a Ki ratio greater than or equal to 10 fold between the Ki in the presence of SAM and the Ki in the presence of MTA)
same,IC50,[3],≥ 5 µM
"COCC(=O)N1CC(Nc2cc(C(=O)NC[C@H](O)CN3CCc4c(ccc(OCc5cnco5)c4C)C3)ncn2)C1 [Compound 518, N-[(2S)-2-hydroxy-3-{5-methyl-6-[(1,3-oxazol-5-yl)methoxy]-1,2,3,4-tetrahydroisoquinolin-2-yl}propyl]-6-{[1-(2-methoxyacetyl)azetidin-3-yl]amino}pyrimidine-4-carboxamide]",IC50,[1],0.5 to 5 µM
same,IC50,[2],0.5 to 5 µM
same,SAM/MTA Ratio,[2],A (a Ki ratio greater than or equal to 10 fold between the Ki in the presence of SAM and the Ki in the presence of MTA)
same,IC50,[3],≥ 5 µM
"Cc1c(OCc2cnco2)ccc2c1CCN(C[C@@H](O)CNC(=O)c1cc(N[C@H]3C[C@H](C(=O)N4CCC4)C3)ncn1)C2 [Compound 519, N-[(2S)-2-hydroxy-3-{5-methyl-6-[(1,3-oxazol-5-yl)methoxy]-1,2,3,4-tetrahydroisoquinolin-2-yl}propyl]-6-{[(1r,3r)-3-(azetidine-1-carbonyl)cyclobutyl]amino}pyrimidine-4-carboxamide]",IC50,[1],0.5 to 5 µM
same,IC50,[2],0.5 to 5 µM
same,SAM/MTA Ratio,[2],A (a Ki ratio greater than or equal to 10 fold between the Ki in the presence of SAM and the Ki in the presence of MTA)
same,IC50,[3],≥ 5 µM
"Cc1c(OCc2ccnn2C)ccc2c1CCN(C[C@@H](O)CNC(=O)c1cc(NC3CCC3)ccn1)C2 [Compound 521, (S)-4-(cyclobutylamino)-N-(2-hydroxy-3-(5-methyl-6-((1-methyl-1H-pyrazol-5-yl)methoxy)-3N-dihydroisoquinolin-2(1H)-yl)propyl)picolinamide]",IC50,[1],0.5 to 5 µM
same,IC50,[2],0.5 to 5 µM
same,SAM/MTA Ratio,[2],A (a Ki ratio greater than or equal to 10 fold between the Ki in the presence of SAM and the Ki in the presence of MTA)
same,IC50,[3],≥ 5 µM
"CNC(=O)CN1CCC(Nc2cc(C(=O)NC[C@H](O)CN3CCc4c(ccc(OCc5cnco5)c4C)C3)ncn2)CC1 [Compound 524, N-[(2S)-2-hydroxy-3-{5-methyl-6-[(1,3-oxazol-5-yl)methoxy]-1,2,3,4-tetrahydroisoquinolin-2-yl}propyl]-6-{[1-[(methylcarbamoyl)methyl]piperidin-4-yl}amino)pyrimidine-4-carboxamide]",IC50,[1],0.5 to 5 µM
same,IC50,[2],0.5 to 5 µM
same,SAM/MTA Ratio,[2],A (a Ki ratio greater than or equal to 10 fold between the Ki in the presence of SAM and the Ki in the presence of MTA)
same,IC50,[3],≥ 5 µM
"CC(=O)N1CCC(Nc2cccc(C(=O)NC[C@H](O)CN3CCc4c(ccc(OCc5cnco5)c4C)C3)c2)C1 (stereo partly drawn) [Compound 525, 3-[(1-acetylpyrrolidin-3-yl)amino]-N-[(2S)-2-hydroxy-3-{5-methyl-6-[(1,3-oxazol-5-yl)methoxy]-1,2,3,4-tetrahydroisoquinolin-2-yl}propyl]benzamide]",IC50,[1],0.5 to 5 µM
same,IC50,[2],0.5 to 5 µM
same,SAM/MTA Ratio,[2],A (a Ki ratio greater than or equal to 10 fold between the Ki in the presence of SAM and the Ki in the presence of MTA)
same,IC50,[3],≥ 5 µM
Cc1c(OCc2cnco2)ccc2c1CCN(C[C@@H](O)CNC(=O)c1cc(N[C@H]3C[C@H](C(=O)N4CCCCC4)C3)ncn1)C2 [Compound 526],IC50,[1],0.5 to 5 µM
same,IC50,[2],0.05 to 0.5 µM
same,SAM/MTA Ratio,[2],A (a Ki ratio greater than or equal to 10 fold between the Ki in the presence of SAM and the Ki in the presence of MTA)
same,IC50,[3],≥ 5 µM
"Cc1c(OCc2cnco2)ccc2c1CCN(C[C@@H](O)CNC(=O)c1ccnc(Nc3cccnc3)c1)C2 [Compound 531, N-[(2S)-2-hydroxy-3-{5-methyl-6-[(1,3-oxazol-5-yl)methoxy]-1,2,3,4-tetrahydroisoquinolin-2-yl}propyl]-2-[(pyridin-3-yl)amino]pyridine-4-carboxamide]",IC50,[1],0.5 to 5 µM
same,IC50,[2],0.5 to 5 µM
same,SAM/MTA Ratio,[2],A (a Ki ratio greater than or equal to 10 fold between the Ki in the presence of SAM and the Ki in the presence of MTA)
same,IC50,[3],≥ 5 µM
CO[C@H]1C[C@@H](Nc2cc(C(=O)NC[C@H](O)CN3CCc4c(ccc(OCc5cnco5)c4C)C3)ccn2)C1 [Compound 535],IC50,[1],0.5 to 5 µM
same,IC50,[2],0.05 to 0.5 µM
same,SAM/MTA Ratio,[2],A (a Ki ratio greater than or equal to 10 fold between the Ki in the presence of SAM and the Ki in the presence of MTA)
same,IC50,[3],≥ 5 µM
"Cc1c(OCc2cnco2)ccc2c1CCN(C[C@@H](O)CNC(=O)c1ccnc(N[C@H]3C[C@H](CO)C3)c1)C2 [Compound 537, N—((S)-2-hydroxy-3-(5-methyl-6-(oxazol-5-ylmethoxy)-3N-dihydroisoquinolin-2(1H)-yl)propyl)-2-(((1r,3S)-3-(hydroxymethyl)cyclobutyl)amino)isonicotinamide]",IC50,[1],0.5 to 5 µM
same,IC50,[2],0.05 to 0.5 µM
same,SAM/MTA Ratio,[2],A (a Ki ratio greater than or equal to 10 fold between the Ki in the presence of SAM and the Ki in the presence of MTA)
same,IC50,[3],≥ 5 µM
"O=C(NC[C@H](O)CN1CCc2cc(OCc3cnco3)ccc2C1)c1cc(NC2CCC2)ncn1 [Compound 538, (S)-6-(cyclobutylamino)-N-(2-hydroxy-3-(6-(oxazol-5-ylmethoxy)-3,4-dihydroisoquinolin-2(1H)-yl)propyl)pyrimidine-4-carboxamide]",IC50,[1],0.5 to 5 µM
same,IC50,[2],0.05 to 0.5 µM
same,SAM/MTA Ratio,[2],A (a Ki ratio greater than or equal to 10 fold between the Ki in the presence of SAM and the Ki in the presence of MTA)
same,IC50,[3],≥ 5 µM
"CO[C@H]1CC[C@@H](Nc2cc(C(=O)NC[C@H](O)CN3CCc4c(ccc(OCc5cnco5)c4C)C3)ncn2)CC1 [Compound 541, N-[(2S)-2-hydroxy-3-{5-methyl-6-[(1,3-oxazol-5-yl)methoxy]-1,2,3,4-tetrahydroisoquinolin-2-yl}propyl]-6-{[(1s,4s)-4-methoxycyclohexyl]amino}pyrimidine-4-carboxamide]",IC50,[1],0.5 to 5 µM
same,IC50,[2],0.05 to 0.5 µM
same,SAM/MTA Ratio,[2],A (a Ki ratio greater than or equal to 10 fold between the Ki in the presence of SAM and the Ki in the presence of MTA)
same,IC50,[3],≥ 5 µM
"Cn1nccc1COc1ccc2c(c1)CCN(C[C@@H](O)CNC(=O)c1cc(NC3CCC3)ccn1)C2 [Compound 542, (S)-4-(cyclobutylamino)-N-(2-hydroxy-3-(6-((1-methyl-1H-pyrazol-5-yl)methoxy)-3N-dihydroisoquinolin-2(1H)-yl)propyl)picolinamide]",IC50,[1],0.5 to 5 µM
same,IC50,[2],0.05 to 0.5 µM
same,SAM/MTA Ratio,[2],A (a Ki ratio greater than or equal to 10 fold between the Ki in the presence of SAM and the Ki in the presence of MTA)
same,IC50,[3],≥ 5 µM
"CC(=O)N1CC(Nc2cc(C(=O)NC[C@H](O)CN3CCc4c(ccc(OCc5cnco5)c4C)C3)ncn2)C1 [Compound 543, 6-[(1-acetylazetidin-3-yl)amino]-N-[(2S)-2-hydroxy-3-{5-methyl-6-[(1,3-oxazol-5-yl)methoxy]-1,2,3,4-tetrahydroisoquinolin-2-yl}propyl]pyrimidine-4-carboxamide]",IC50,[1],0.5 to 5 µM
same,IC50,[2],0.5 to 5 µM
same,SAM/MTA Ratio,[2],A (a Ki ratio greater than or equal to 10 fold between the Ki in the presence of SAM and the Ki in the presence of MTA)
same,IC50,[3],≥ 5 µM
"Cc1c(OCc2cnco2)ccc2c1CCN(C[C@@H](O)CNC(=O)c1cccc(NC3CCOCC3)c1)C2 [Compound 548, N-[(2S)-2-hydroxy-3-{5-methyl-6-[(1,3-oxazol-5-yl)methoxy]-1,2,3,4-tetrahydroisoquinolin-2-yl}propyl]-3-[(oxan-4-yl)amino]benzamide]",IC50,[1],0.5 to 5 µM
same,IC50,[2],0.5 to 5 µM
same,SAM/MTA Ratio,[2],A (a Ki ratio greater than or equal to 10 fold between the Ki in the presence of SAM and the Ki in the presence of MTA)
same,IC50,[3],≥ 5 µM
"Cc1c(OCc2cnco2)ccc2c1CCN(C[C@@H](O)CNC(=O)c1ccnc(N[C@H]3C[C@H](O)C3)c1)C2 [Compound 552, N—((S)-2-hydroxy-3-(5-methyl-6-(oxazol-5-ylmethoxy)-3,4-dihydroisoquinolin-2(1H)-yl)propyl)-2-(((1r,3S)-3-hydroxycyclobutyl)amino)isonicotinamide]",IC50,[1],0.5 to 5 µM
same,IC50,[2],0.5 to 5 µM
same,SAM/MTA Ratio,[2],A (a Ki ratio greater than or equal to 10 fold between the Ki in the presence of SAM and the Ki in the presence of MTA)
same,IC50,[3],≥ 5 µM
"CCCN(C)c1cc(C(=O)NC[C@H](O)CN2CCc3cc(OCc4ocnc4C)ccc3C2)cc(NC2CCC2)n1 [Compound 553, 2-(cyclobutylamino)-N-[(2S)-2-hydroxy-3-{6-[(4-methyl-1,3-oxazol-5-yl)methoxy]-1,2,3,4-tetrahydroisoquinolin-2-yl}propyl]-6-[methyl(propyl)amino]pyridine-4-carboxamide]",IC50,[1],0.5 to 5 µM
same,IC50,[2],0.05 to 0.5 µM
same,SAM/MTA Ratio,[2],A (a Ki ratio greater than or equal to 10 fold between the Ki in the presence of SAM and the Ki in the presence of MTA)
same,IC50,[3],≥ 5 µM
